In ChEMBL document CHEMBL1201862, “PubChem BioAssay data set” (2004):
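Where inhibition never reached the appropriate level, the endpoint shown equals the highest concentration tested. Otherwise, values were interpolated linearly from a five-concentration, 48-hour dose response in 96-well plates. GI50 marks 50% less growth.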 Calls of active or inactive are those of the source. Cut-off read from the data, not from the text of the source: active = GI50 up to about 1.1 µM and inactive = higher.

Legend:
Assay in all cases: NCI anticancer screen, dose series, 48 h
[1] = tested on: SF-268
[2] = tested on: MCF7
[3] = tested on: SK-MEL-2
[4] = tested on: SF-539
[5] = tested on: U-251
[6] = tested on: SW-620
[7] = tested on: OVCAR-5
[8] = tested on: NCI/ADR-RES
[9] = tested on: EKVX
[10] = tested on: MOLT-4
[11] = tested on: 786-0
[12] = tested on: SN12C
[13] = tested on: K562
[14] = tested on: BT-549
[15] = tested on: HL-60
[16] = tested on: SK-OV-3
[17] = tested on: UACC-62
[18] = tested on: SF-295
[19] = tested on: SNB-75
[20] = tested on: SR

SMILES	GI50 [1]	GI50 [2]	GI50 [3]	GI50 [4]	GI50 [5]	GI50 [6]	GI50 [7]	GI50 [8]	GI50 [9]	GI50 [10]	GI50 [11]	GI50 [12]	GI50 [13]	GI50 [14]	GI50 [15]	GI50 [16]	GI50 [17]	GI50 [18]	GI50 [19]	GI50 [20]
Nc1nc2c(c(=O)[nH]1)N=C(COP(=O)(O)OP(=O)(O)O)CN2	> 100 µM (inactive)	> 100 µM (inactive)	> 100 µM (inactive)	> 100 µM (inactive)	> 100 µM (inactive)	> 100 µM (inactive)	> 100 µM (inactive)	> 100 µM (inactive)	> 100 µM (inactive)	> 100 µM (inactive)	> 100 µM (inactive)	> 100 µM (inactive)	> 100 µM (inactive)	> 100 µM (inactive)	> 100 µM (inactive)	> 100 µM (inactive)	> 100 µM (inactive)	> 100 µM (inactive)	> 100 µM (inactive)	> 100 µM (inactive)
CN(C)Cc1cc(C(F)(F)F)ccc1C(O)(c1ccccc1)c1ccccc1	15.3 µM (inactive)	14.3 µM (inactive)	18.3 µM (inactive)	17 µM (inactive)	11.8 µM (inactive)	17.3 µM (inactive)	14.4 µM (inactive)	15.2 µM (inactive)	15.4 µM (inactive)	15.7 µM (inactive)	14.2 µM (inactive)	15.4 µM (inactive)	6.9 µM (inactive)	> 10 µM (inactive)	7.76 µM (inactive)	17.4 µM (inactive)	13.2 µM (inactive)	17.9 µM (inactive)	8.55 µM (inactive)	12.6 µM (inactive)
COc1ccc2oc(C(=O)N3CC(CCl)c4ccc(N)cc43)cc2c1 (stereo not given)	0.354 µM (active)	0.465 µM (active)	0.238 µM (active)	0.481 µM (active)	0.333 µM (active)	0.348 µM (active)	0.53 µM (active)	0.213 µM (active)	0.933 µM (active)	0.255 µM (active)	0.133 µM (active)	0.869 µM (active)	0.39 µM (active)	0.299 µM (active)	0.415 µM (active)	1.35 µM (inactive)	0.192 µM (active)	0.344 µM (active)	0.308 µM (active)	0.16 µM (active)
CN1CN(c2ccccc2)C2(CCN(CCCSc3ccccc3NC(=O)/C=C/c3ccccc3)CC2)C1=O	4.21 µM (inactive)	13 µM (inactive)	2.58 µM (inactive)	2.88 µM (inactive)	7.5 µM (inactive)	6.25 µM (inactive)	22.6 µM (inactive)	3.87 µM (inactive)	4.98 µM (inactive)	2 µM (inactive)	7.03 µM (inactive)	3.39 µM (inactive)	3.85 µM (inactive)	2.54 µM (inactive)	3.95 µM (inactive)	5.92 µM (inactive)	2.71 µM (inactive)	3.3 µM (inactive)	5.52 µM (inactive)	2.1 µM (inactive)
CNC(=O)C(C)NC(=O)C(Cc1ccccc1)NC(=O)c1ccccc1 (stereo not given)	> 100 µM (inactive)	> 100 µM (inactive)	> 100 µM (inactive)	> 100 µM (inactive)	> 100 µM (inactive)	> 100 µM (inactive)	> 100 µM (inactive)	> 100 µM (inactive)	> 100 µM (inactive)	> 100 µM (inactive)	> 100 µM (inactive)	> 100 µM (inactive)	> 100 µM (inactive)	> 100 µM (inactive)	> 100 µM (inactive)	> 100 µM (inactive)	> 100 µM (inactive)	> 100 µM (inactive)	> 100 µM (inactive)	> 100 µM (inactive)
CC(=O)N(C(C)=O)n1c(Cc2ccc(Cl)cc2)nn(C(C)=O)c1=O	> 100 µM (inactive)	> 100 µM (inactive)	> 100 µM (inactive)	> 100 µM (inactive)	> 100 µM (inactive)	> 100 µM (inactive)	> 100 µM (inactive)	> 100 µM (inactive)	> 100 µM (inactive)	> 100 µM (inactive)	> 100 µM (inactive)	> 100 µM (inactive)	> 100 µM (inactive)	> 100 µM (inactive)	> 100 µM (inactive)	> 100 µM (inactive)	> 100 µM (inactive)	> 100 µM (inactive)	> 100 µM (inactive)	> 100 µM (inactive)
Nc1ccc2ccc(N3CCNCC3)nc2n1	44.7 µM (inactive)	70 µM (inactive)	35.1 µM (inactive)	71.3 µM (inactive)	80.2 µM (inactive)	47.6 µM (inactive)	32.4 µM (inactive)	> 100 µM (inactive)	74.1 µM (inactive)	32.4 µM (inactive)	61.7 µM (inactive)	51.2 µM (inactive)	50.8 µM (inactive)	65.8 µM (inactive)	34 µM (inactive)	83.9 µM (inactive)	59.2 µM (inactive)	39.9 µM (inactive)	> 100 µM (inactive)	33.4 µM (inactive)
COc1ccc(SCc2cc(OC)c(OC)c(OC)c2)cc1OC	> 100 µM (inactive)	28.8 µM (inactive)	23 µM (inactive)	> 80.2 µM (inactive)	53.8 µM (inactive)	82.6 µM (inactive)	> 94.6 µM (inactive)	32.4 µM (inactive)	43.4 µM (inactive)	46.2 µM (inactive)	> 100 µM (inactive)	> 100 µM (inactive)	42.9 µM (inactive)	30 µM (inactive)	30.8 µM (inactive)	50.1 µM (inactive)	38 µM (inactive)	45.7 µM (inactive)	17.7 µM (inactive)	53.8 µM (inactive)
C=CCN1C(=O)/C(=C/c2ccccc2)NC1=S	> 100 µM (inactive)	> 100 µM (inactive)	> 100 µM (inactive)	> 100 µM (inactive)	> 100 µM (inactive)	> 100 µM (inactive)	> 100 µM (inactive)	> 100 µM (inactive)	91 µM (inactive)	61.7 µM (inactive)	> 100 µM (inactive)	> 100 µM (inactive)	84.5 µM (inactive)	> 100 µM (inactive)	43.5 µM (inactive)	> 100 µM (inactive)	> 100 µM (inactive)	> 100 µM (inactive)	> 100 µM (inactive)	> 100 µM (inactive)
Cn1cnc([N+](=O)[O-])c1[Se]c1nc(N)nc2c1ncn2C1OC(CO)C(O)C1O (stereo not given)	> 100 µM (inactive)	> 100 µM (inactive)	> 100 µM (inactive)	> 100 µM (inactive)	> 100 µM (inactive)	> 100 µM (inactive)	> 100 µM (inactive)	> 100 µM (inactive)	> 100 µM (inactive)	> 100 µM (inactive)	> 100 µM (inactive)	> 100 µM (inactive)	> 100 µM (inactive)	> 100 µM (inactive)	> 100 µM (inactive)	> 100 µM (inactive)	> 100 µM (inactive)	> 100 µM (inactive)	> 100 µM (inactive)	> 100 µM (inactive)
Cc1ccc([S+](c2ccccc2)c2cc(C)ccc2C)cc1.O=C(OC(C(=O)[O-])C(OC(=O)c1ccccc1)C(=O)O)c1ccccc1 (stereo not given)	22.1 µM (inactive)	4.88 µM (inactive)	3.51 µM (inactive)	29 µM (inactive)	5.37 µM (inactive)	7.89 µM (inactive)	23.2 µM (inactive)	> 100 µM (inactive)	> 100 µM (inactive)	26.5 µM (inactive)	26.2 µM (inactive)	17.7 µM (inactive)	2.53 µM (inactive)	3.37 µM (inactive)	3.13 µM (inactive)	16.9 µM (inactive)	12.2 µM (inactive)	11.9 µM (inactive)	8.09 µM (inactive)	1.85 µM (inactive)
C=CCN1C(=O)CNC1=S	> 100 µM (inactive)	> 100 µM (inactive)	> 100 µM (inactive)	> 100 µM (inactive)	> 100 µM (inactive)	> 100 µM (inactive)	> 100 µM (inactive)	> 100 µM (inactive)	> 100 µM (inactive)	> 100 µM (inactive)	> 100 µM (inactive)	> 100 µM (inactive)	40.6 µM (inactive)	> 100 µM (inactive)	23.7 µM (inactive)	> 100 µM (inactive)	> 100 µM (inactive)	> 100 µM (inactive)	> 100 µM (inactive)	> 100 µM (inactive)
Cc1cc2c(c(/C=N/c3ccc(N(C)C)cc3)c1)OC1(C=C2)Oc2ccccc2C(=O)N1C (stereo not given)	17.1 µM (inactive)	16.2 µM (inactive)	> 39.2 µM (inactive)	10 µM (inactive)	15.1 µM (inactive)	17.3 µM (inactive)	17.7 µM (inactive)	16.5 µM (inactive)	12.5 µM (inactive)	1.75 µM (inactive)	14.2 µM (inactive)	15.7 µM (inactive)	4.97 µM (inactive)	8.63 µM (inactive)	3.54 µM (inactive)	24.4 µM (inactive)	13.1 µM (inactive)	21.2 µM (inactive)	18 µM (inactive)	54.2 µM (inactive)
C(=N\NC1=NCCN1)/c1ccc(-c2cn3cc(/C=N/NC4=NCCN4)ccc3n2)cc1	9.79 µM (inactive)	2.2 µM (inactive)	> 100 µM (inactive)	> 100 µM (inactive)	15.5 µM (inactive)	> 28.2 µM (inactive)	64.3 µM (inactive)	> 66.2 µM (inactive)	> 50.4 µM (inactive)	5.35 µM (inactive)	19 µM (inactive)	> 36.9 µM (inactive)	14.6 µM (inactive)	18.2 µM (inactive)	4.48 µM (inactive)	> 100 µM (inactive)	40.6 µM (inactive)	> 44.8 µM (inactive)	> 100 µM (inactive)	3.33 µM (inactive)
